Test results published in patent US20120115951A1, “PROTECTIVE ACTION OF SEROFENDIC ACID ON CARDIAC MUSCLE” (Eisai R & D Managment Co., Ltd, priority 2005, published 2012).

Experiments:
[1] = tested on: neonatal rat cardiac myocytes; assay: FACS analysis of ΔΨm in TMRE-loaded cells; assay type: cell-based; conditions: for protection against ΔΨm loss in the presence of mitoKATP channel blocker 5HD: 100 μM drug plus 500 μM 5HD
Method: (§1) Cardiac ventricular myocytes were prepared from 1-2-day-old Wister rats and cultured as previously described (Akao M, et al., Circ Res. 2001; 88:1267-75). In brief, the hearts were removed, and the ventricles were minced into small fragments, which were digested by trypsin dissociation. The dissociated cells were preplated for 1 hour to enrich the culture with myocytes. The non-adherent myocytes were then plated in plating medium consisting of Dulbecco's Modified Eagle Medium (DMEM) (Nacalai tesque; Kyoto, Japan) supplemented with 5% fetal calf serum, penicillin (100 U/ml), streptomycin ([…]), and 2 μg/ml vitamin B12. The final myocyte cultures contained >90% cardiac myocytes. The cells were maintained at 37° C. in the presence of 5% CO2 in a humidified incubator. Bromodeoxyuridine (0.1 mM) was incubated in the medium for the first 3 days after plating to inhibit fibroblast growth. Cultures were then placed in serum-free DMEM containing vitamin B12 and transferrin, 24 hours prior to the drug treatment.
(§2) To monitor ΔΨm, cells were loaded with 100 nM tetramethylrhodamine ethyl ester (TMRE) (Molecular Probes) at 37° C. for 20 minutes. To monitor [Ca^2+]m, the cells were loaded with 2 μM […] (Molecular Probes) at 37° C. for 30 minutes. We assayed intracellular ROS production using chloromethyl-2,7-dichlorodihydrofluorescein diacetate (DCF) (Molecular Probes). Cells were loaded with 4 μM DCF at 37° C. for 30 minutes, and formation of the oxidized derivative was monitored by the increase of green fluorescence.
For FACS analysis of ΔΨm, TMRE-loaded cells were harvested by trypsinization at the end of the experimental protocols, and analyzed using FACSAria (BD Biosciences; San Jose, Calif.) (20,000 cells/sample). The fluorescence intensity of TMRE was monitored at 582 nm (FL-2). The FACS data were analyzed using analysis software (WinMDI; http://facs/scripps.edu/software.html).
C=Control cells; H=Cells exposed to 100 μM H2O2 for 1 hour; SFA=Cells pretreated with 100 μM SFA followed by 100 μM H2O2 for 1 hour. In all histograms, the position of the major population of cells in the control group is indicated by a vertical dashed line. […] Cells were pretreated with various concentrations of SFA followed by 100 μM H2O2 for 1 hour. C=Control cells. SFA preserved ΔΨm in a concentration-dependent manner
FIG. 2c and FIG. 2d show the summarized data of the percentage of cells that maintain high (>200) TMRE fluorescence. The cells were pre-treated with various drugs shown in the figure and then treated with 100 μM H2O2 for 1 hour. DZ=100 μM diazoxide; 5HD=500 μM 5-hydroxydecanoate.

[2] = tested on: neonatal rat cardiac myocytes; assay: MTS assay of cell viability after H2O2; assay type: cell-based; conditions: 100 μM SFA; H2O2 treatment 3 hours; P<0.01 vs H group
Method: as §1, with “Bromodeoxyuridine (0.1 mM) was incubated in the medium for the first 3 days after plating to inhibit fibroblast growth. Cultures were then placed in serum-free DMEM containing vitamin B12 and transferrin, 24 hours prior to the drug treatment.” left out
Cell viability was quantified based on metabolic activity using the MTS assay (Promega; Madison, Wis.). […] The quantity of formazan product is directly proportional to the number of living cells in culture (Zhang H M, et al., Circ Res. 2002; 90:1251-8).
The cultures were incubated in serum-free medium containing 20 μl/well of the MTS tetrazolium compound for 3 hours at 37° C. The absorbance of formazan products was photometrically measured at 490 nm with a microplate reader, ARVOsx (PerkinElmer; Shelton, Wash.). Cell viability was expressed as the percentage of the absorbance measured in the control group. […]

[3] = Blood pressure measurement after femoral vein administration; assay type: in vivo, Sprague-Dawley male rats; conditions: 10 mg/kg into femoral vein; monitored until 10 minutes after administration; anesthetized rats
Method: The distal end of the common carotid artery of 8-week-old Sprague-Dawley male rats (about 250 g) was ligated under the effect of pentobarbital anesthetic. Then, to the proximate end thereof, a polyethylene tube filled with heparin-containing saline and connected to a pressure converter was inserted. Changes in blood pressure were recorded by a pen recorder.
A 24-gauge injection needle connected to a syringe via the tube was inserted into the femoral vein, and the liquid drug was injected over 1 to 2 minutes. The blood pressure was monitored from before the liquid drug administration until 10 minutes after the administration.
Serofendic acid was dissolved in Meylon (7% NaHCO3) at a concentration of 4 mg/mL. The blood pressure of each individual rat was measured after only the solvent was administered. Then, 10 mg/kg of serofendic acid was administered. The average of the blood pressure for 3 minutes before the administration of each of SFA and Meylon was set as 100%.

[4] = tested on: neonatal rat cardiac myocytes; assay: Time-lapse confocal analysis of [Ca2+]m (rhod-2 fluorescence); assay type: cell-based; conditions: 100 μM SFA pretreatment; H2O2 for 1 hour (50 μM, 100 μM elsewhere in the source)
Method: as §2
(§3) Cells plated on 35 mm glass-bottom dishes were maintained at 37° C. in the presence of 5% CO2 using a heater platform installed on a microscope stage, and were placed in serum-free DMEM. After the desired temperature was reached, time-lapse confocal microscopy was started with 2 minute intervals, using a 20× objective lens. […]
(§4) Twenty-five cells were randomly selected in each scan, and the red or green fluorescence intensity was sequentially monitored.
Calcium overload in mitochondrial matrix is one of the critical triggers of cell death and is also an important inducer of MPTP opening. To monitor the [Ca^2+]m level, the present inventors performed time-lapse confocal microscopy using the [Ca^2+]m sensitive dye, rhod-2, and observed the change of fluorescence due to 50 μM H2O2 stimulation in each group (FIG. 5). […]

[5] = tested on: cultured cortical and striatal neurons; conditions: in vitro; cited from earlier work
[6] = tested on: neonatal rat cardiac myocytes; assay: Time-lapse confocal analysis of intracellular ROS production (DCF fluorescence); assay type: cell-based; conditions: 100 μM SFA pretreatment; H2O2 for 30 min (50 μM, 100 μM elsewhere in the source)
Method: as §2
as §3, with “lens. Images were taken with laser scanning confocal microscopy (Zeiss, LSM510).” for “lens.”
as §4
ROS is one of the most important inducers of MPTP opening. To investigate whether the suppression of ROS production is associated with the protective effects of SFA, the present inventors assessed the change of DCF fluorescence by 50 μM H2O2 stimulation in each group using time-lapse confocal microscopy (FIG. 4). […]

[7] = tested on: neonatal rat cardiac myocytes; assay: TUNEL staining and DAPI staining of neonatal rat cardiac myocytes exposed to H2O2; assay type: cell-based
Method: as §1, with “Cultures were then placed in serum-free DMEM containing vitamin B12 and transferrin, 24 hours prior to the drug treatment.” left out
TUNEL staining was performed according to the manufacturer's protocol (Roche; Indianapolis, Ind.). Fluorescein labels incorporated in nucleotide polymers were detected with a fluorescence microscope (Axioskop 2 plus, Zeiss; Thornwood, N.Y.).
Cells were stained with the DNA binding dye DAPI (5 μM, Molecular Probes; Eugene, Oreg.). The nuclear morphology of cells were visualized and photographed with the fluorescence microscope. […]

[8] = tested on: neonatal rat cardiac myocytes; assay: Time-lapse confocal analysis of ΔΨm loss (TMRE fluorescence); assay type: cell-based
Method: as §2
Cells plated on 35 mm glass-bottom dishes were maintained at 37° C. in the presence of 5% CO2 using a heater platform installed on a microscope stage, and were placed in serum-free DMEM. After the desired temperature was reached, time-lapse confocal microscopy was started with 2 minute intervals, using a 20× objective lens. Images were taken with laser scanning confocal microscopy (Zeiss, LSM510). TMRE and rhod-2 AM were excited at 543 nm using a helium/neon laser. DCF was excited at 488 nm using an argon laser.
as §4
To further confirm the protective effect of SFA in preventing the loss of ΔΨm, the present inventors examined the time-dependent changes of ΔΨm on a single-cell basis (FIG. 3). Time-lapse confocal analysis of cardiac myocytes loaded with TMRE was performed at 2-minute intervals. Time-lapse scanning began immediately after the application of 50 μM H2O2.
C=Control cells; H=Cells exposed to 100 μM H2O2 for 1 hour; SFA=Cells pretreated with 100 μM SFA followed by 100 μM H2O2 for 1 hour. Scale bars at 0 min frames: 20 μm.

[9] = electron spin resonance analysis; cited from earlier work
[10] = tested on: isolated cardiac myocytes; conditions: previously reported (Akao et al. 2001); cited from earlier work
[11] = 25 randomly selected cells, 100 μM SFA, H2O2

## C[S+]([O-])CC1C2CCC3(CCC4C(C)(C(=O)O)CCCC4(C)C3C2)C1O (single isomer, unassigned; ent-15) [SFA, ent-15β-hydroxy-17-methylsulfinyl-16α-atisan-19-oic acid]
[1]; 100 μM H2O2 for 1 hour
  concentration at which the ΔΨm-preserving effect reached its maximum level: 100 µM
[1]; 100 μM SFA vs 100 μM diazoxide, 100 μM H2O2 for 1 hour
  protective effect in preventing the loss of ΔΨm, versus diazoxide: comparable to 100 μM diazoxide
[1]; 100 μM diazoxide and 100 μM SFA vs SFA alone, 100 μM H2O2
  effect of co-application with diazoxide on ΔΨm preservation: did not exhibit an additive effect
[1]; 100 μM H2O2
  protection against ΔΨm loss in the presence of mitoKATP channel blocker 5HD: completely blocked
[1]; SFA alone in the absence of H2O2
  effect on control level of ΔΨm: did not affect the control level of ΔΨm
[1]; various concentrations of SFA followed by 100 μM H2O2 for 1 hour
  loss of ΔΨm (percentage of cells that maintain high (>200) TMRE fluorescence): prevented the loss of ΔΨm in a concentration-dependent manner
[2]
  cellular viability evaluated by MTS assay: partly but significantly protected against H2O2-induced cytotoxicity
[3]
  change in average blood pressure: no significant change in average blood pressure was observed
[4]
  rhod-2 fluorescence ([Ca2+]m overload): partly attenuated the [Ca^2+]m overload
[5]
  protection of neurons against glutamate, nitric oxide, and H2O2 cytotoxicity: exhibited the ability to protect cultured cortical and striatal neurons
[6]
  DCF fluorescence (intracellular ROS): suppressed the increase in DCF fluorescence
[7]; 100 μM SFA, 100 μM H2O2 for 16 hours
  nuclear morphology (DAPI staining): significant protective effect in the preservation of nuclear morphology
[7]; pretreated with 100 μM SFA followed by 100 μM H2O2 for 16 hours, compared with H2O2 group
  TUNEL-positive nuclei: obviously fewer TUNEL-positive nuclei
[8]; 100 μM SFA pretreatment, H2O2 (50 μM, 100 μM elsewhere in the source)
  TMRE fluorescence over 60 minutes (time-lapse): remarkably preserved
[8]; [11]
  number of cells undergoing the dissipation of ΔΨm: decreased the number of cells undergoing the dissipation of ΔΨm
  onset of ΔΨm loss: delayed the onset of ΔΨm loss
[9]
  hydroxyl radical-scavenging activity: exhibits hydroxyl radical-scavenging activity

## CCCCCC(O)CCCC(=O)O (centres unmarked) [5HD, 5-hydroxydecanoate, reference compound]
[1]; 500 μM 5HD, 100 μM H2O2
  effect of 5HD alone on the loss of ΔΨm elicited by H2O2: did not aggravate the loss of ΔΨn

## CC1=NS(=O)(=O)c2cc(Cl)ccc2N1 [diazoxide, reference compound]
[1]; 100 μM H2O2
  protection against ΔΨm loss in the presence of mitoKATP channel blocker 5HD: completely blocked
[10]
  loss of ΔΨm induced by oxidative stress: prevents the loss of ΔΨm induced by oxidative stress in a concentration-dependent manner
